Reference: US20260365677A1, “NEW CONTRAST AGENTS FOR USE IN DIAGNOSTIC IMAGING” (Bayer Aktiengesellschaft, priority 2022, published 2026)

Experiments:
[1] = Complex stability (transmetallation) with Zn2+ in phosphate buffer; assay type: physicochemical; conditions: over 72 hours, 2.5 mM Zn^2+, 26 mM phosphate buffer, 37 °C
Experimental: The used method is described elsewhere (Laurent S et al., Stability of MRI paramagnetic contrast media: a proton relaxometric protocol for transmetallation assessment. Invest Radiol. 2001 February; 36(2):115-22). […] If test compounds are instable under these conditions, transmetallation during this test would lead to the formation of the Zn^2+ complex of the test item, while Gd^3+ is released and precipitated as highly insoluble GdPO4.
After 3d of incubation T1 relaxation time was observed.

[2] = 1.5 T, 37 °C, from Rohrer et al., cited from earlier work; for r1 plasma: bovine plasma instead of human plasma
[3] = system: organic anion-transporting polypeptides (OATP1B1, OATP1B3); conditions: via OATP1B1, OATP1B3; cited from earlier work
[4] = Partition coefficient (log P butanol/buffer); assay type: physicochemical; conditions: 50 mM Tris-HCl, pH 7.4, 10 μM, room temperature
Experimental: The partition coefficient P (log P=log(Cbutanol/Cbuffer)) was determined in buffered aqueous solution (10 μM of compound in 0.5 mL 50 mM Tris-HCl saturated with Butanol, pH 7.4) and 1-butanol 1+1 and the mixture was shaken for 2 h at room temperature (n=3). The Gd-concentrations in each phase. CObutano, and Cbuffer were measured by ICP-MS (The Chemistry of Contrast Agents in Medical Magnetic Resonance Imaging” 2nd Ed. Merbach A S, Helm L, Toth E, eds. Hoboken, NJ: Wiley 2013).

dentate nucleus = conditions: after repeated administration; cited from earlier work
[5] = system: multidrug resistance-associated protein 2 (MRP2); conditions: via MRP2 (cMOAT); cited from earlier work
[6] = Exploratory water solubility in 10 mM Tris-HCl buffer, pH 7.4; assay type: physicochemical; conditions: aqueous buffer (10 mM Tris-HCl), 20 °C
Experimental: The exploratory water solubility of the compounds is determined at room temperature (20 °C) in 0.5 mL buffer solution (10 mM Tris-HCl, pH 7.4) in the microcentrifuge tubes (Eppendorf, 2.0 mL safe-lock caps). The solid compounds were added stepwise to the buffer solution. More substance is added once all the suspended material is dissolved until an equilibrium between undissolved and dissolved substance is reached. The suspension was mixed using a shaker (Heidolph Reax 2000) and treated 5 min in an ultrasound bath (Bandelin, Sonorex Super RK255H). The Gadolinium concentration of the test substance in the clear solution is measured by ICP-MS.

focal liver lesions = conditions: patients with healthy liver or oncologic/cirrhotic liver patients; cited from earlier work
plasma proteins = conditions: cited from earlier work
[7] = of the administered dose; cited from earlier work

| Solubility [6] | SMILES | Transmetallation stability (in words) [1] | r1 plasma [2] | r1 water [2] | uptake by hepatocytes [3] | Log P [4] | signal intensity in the dentate nucleus (dentate nucleus) | excretion into the bile canaliculi [5] | detection and identification of focal liver lesions by liver MRI (focal liver lesions) | protein binding (plasma proteins) | secretion/excretion into the bile [7] |
| --- | --- | --- | --- | --- | --- | --- | --- | --- | --- | --- | --- |
| – | O=C([O-])CN1CCN(CC(=O)[O-])CCN([C@H](CO)[C@H](O)CO)CCN(CC(=O)[O-])CC1.[Gd+3] (racemic) [RC3, gadobutrol] | stable | 5.2 L/mmol/s | 3.3 L/mmol/s | – | – | – | – | – | – | – |
| >250 mM | CCOc1ccc(CC(CN(CCN(CC(=O)[O-])CC(=O)[O-])CC(=O)[O-])N(CC(=O)[O-])CC(=O)[O-])cc1.[Gd+3].[Na+].[Na+] (centres unmarked) [RC1, gadoxetate disodium] | – | 6.9 L/mmol/s | 4.7 L/mmol/s | mainly taken up by hepatocytes via organic anion-transporting polypeptides (OATP1B1, OATP1B3) | −2.12 | increased signal intensity in the dentate nucleus | primarily excreted into the bile canaliculi via the multidrug resistance-associated protein 2 | able to detect and identify focal liver lesions with high specificity and sensitivity | approximately 10% | up to 50% |
| – | O=C([O-])CN(CCN(CC(=O)[O-])CC(=O)[O-])CCN(CC(=O)[O-])C(COCc1ccccc1)C(=O)[O-].[Gd+3].[H+].[H+] (centres unmarked) [RC2, gadobenic acid] | – | 6.3 L/mmol/s | 4.0 L/mmol/s | – | −2.07 | – | – | – | approximately 10% | – |
